Measured values taken from patent publication EP4714939A1, “SULFONAMIDE COMPOUND, PREPARATION METHOD THEREFOR, AND PHARMACEUTICAL USE THEREOF” (Shenzhen Salubris Pharmaceuticals Co., Ltd., priority 2023, dated 2024).

Tested on: Lp(a)
Experiment: In-vitro Lp(a) assembly assay (cell-free, sandwich ELISA)
Format: biochemical
Conditions: inhibition of Lp(a) formation; HepG2 and HEK293 (human Apo(a), 17 Kringle repeats) conditioned media, 37°C, 2 hours; 4-parameter curve
Protocol: The capability of the compounds in the examples inhibiting the formation of Lp(a) particles in vitro was evaluated through cell-free assembly assay. After incubation at 37°C with 5% CO2 for 96 h, conditioned media (supplemented with 10% FBS, 20 mM HEPES, and 1 × penicillin/streptomycin DMEM) was collected from confluent wild-type HepG2 cells (source of endogenously expressed ApoB) and an HEK293 stable cell line expressing human Apo(a) protein containing 17 Kringle repeats (selected on 1 ug/ml puromycin). In-vitro assembly assay was performed by combining equal parts of HepG2 and HEK293 conditioned media with compounds under test added in a dilution series (final concentration being 0.03-1000 nM). A reaction was incubated at 37°C for 2 hours, and terminated by adding 6-aminocaproic acid (EACA) to a final concentration of 150 mM. Sandwich ELISA was used to detect Lp(a) using an anti-Apo(a) capture antibody (ab242565) and an HRP-conjugated anti-ApoB detection antibody (ab27622). ELISA was performed using TMB staining, and terminated with 1N sulfuric acid, and signals were read at 450 nm on an Envision 2104 plate reader. By setting an assembly reaction without inhibitors to 0% inhibition and an assembly reaction with the minimum amount of HepG2 conditioned medium (50-fold dilution) to 100% inhibition, the % inhibition of Lp(a) formed under each test condition was determined. Table 1 IC90 values of sulfonamide compounds

Compound	IC90 [nM]
O=C(O)[C@@H](Cc1cccc(S(=O)(=O)N(Cc2cc(C[C@H](C(=O)O)[C@H]3CCNC3)c(F)cc2F)Cc2cc(C[C@H](C(=O)O)[C@H]3CCNC3)c(F)cc2F)c1)[C@H]1CCNC1 [Compound 16]	23.8
O=C(O)[C@@H](Cc1cccc(S(=O)(=O)N(Cc2ccc(F)c(C[C@H](C(=O)O)[C@H]3CCNC3)c2)Cc2cc(C[C@H](C(=O)O)[C@H]3CCNC3)ccc2F)c1)[C@H]1CCNC1 [Compound 14]	24.4
O=C(O)C(Cc1cccc(CCN(CCc2cccc(CC(C(=O)O)C3CCNC3)c2)S(=O)(=O)c2cccc(CC(C(=O)O)C3CCNC3)c2)c1)C1CCNC1 [Compound 21, (2S,2'S)-3,3'(3-((S)-2-carboxyl-2-((R)-pyrrolid-3-yl)ethyl)phenyl)sulfonyl)azadiyl)bis(ethane-2,1-diyl))bis(3,1-phenylenyl)bis(2-(R)-pyrrolid-3-yl)propanoic acid)]	33.9
O=C(O)[C@@H](Cc1cccc(S(=O)(=O)N(CCc2ccccc2C[C@H](C(=O)O)[C@H]2CCNC2)Cc2cccc(C[C@H](C(=O)O)[C@H]3CCNC3)c2F)c1)[C@H]1CCNC1 [Compound 25, (S)-3-(3-(N-(3-((S)-2-carboxyl-2-((R)-pyrrolid-3-yl)etyhl)-2-fluorobenzyl) -N-(2-(S)2-carboxyl-2-((R)-pyrrolid-3-yl)ethyl)phenethyl)aminosulfonyl)phenyl)-2-(((R)-pyrrolid-3-yl)propanoic acid]	81.7
O=C(O)[C@@H](Cc1cccc(CCN(CCc2ccccc2C[C@H](C(=O)O)[C@H]2CCNC2)S(=O)(=O)c2cccc(C[C@H](C(=O)O)[C@H]3CCNC3)c2)c1)[C@H]1CCNC1 [Compound 19]	40.9
O=C(O)[C@@H](Cc1cccc(S(=O)(=O)N(CCc2ccccc2C[C@H](C(=O)O)[C@H]2CCNC2)Cc2ccc(F)c(C[C@H](C(=O)O)[C@H]3CCNC3)c2)c1)[C@H]1CCNC1 [Compound 24]	25.8
O=C(O)[C@@H](Cc1cccc(CN(Cc2cccc(C[C@H](C(=O)O)[C@H]3CCNC3)c2F)S(=O)(=O)c2cccc(C[C@H](C(=O)O)[C@H]3CCNC3)c2)c1)[C@H]1CCNC1 [Compound 5]	37.9
O=C(O)C(Cc1cccc(S(=O)(=O)N(Cc2ccc(Cl)c(CC(C(=O)O)C3CCNC3)c2)Cc2ccc(Cl)c(CC(C(=O)O)C3CCNC3)c2)c1)C1CCNC1 [Compound 41, (2S,2'S)-3,3'-(3-((S)-2-carboxyl-2-((R)-pyrrolid-3-yl)ethyl)phenyl)sulfonyl)azadiyl)dimethylenyl)bis(6-chloro-3,1-phenylenyl)bis(2-(R)-pyrrolid-3-yl)propanoic acid)]	38.1
O=C(O)[C@@H](Cc1cccc(CN(Cc2c(F)ccc(C[C@H](C(=O)O)[C@H]3CCNC3)c2F)S(=O)(=O)c2cccc(C[C@H](C(=O)O)[C@H]3CCNC3)c2)c1)[C@H]1CCNC1 [Compound 32]	31.4
O=C(O)C(Cc1cc(S(=O)(=O)N(Cc2ccc(Cl)c(CC(C(=O)O)C3CCNC3)c2)Cc2ccc(Cl)c(CC(C(=O)O)C3CCNC3)c2)ccc1F)C1CCNC1 [Compound 42, (2S,2'S)-3,3'(3-((S)-2-carboxyl-2-(R)-pyrrolid-3-yl)ethyl)-4-fluorophenylsu lfonyl)azadiyl)dimethylenyl)bis(6-chloro-3,1-phenylenyl)bis(2-(R)-pyrrolid-3-yl)propanoic acid)]	25.1
O=C(O)C(Cc1cccc(S(=O)(=O)N(Cc2c(F)ccc(CC(C(=O)O)C3CCNC3)c2F)Cc2c(F)ccc(CC(C(=O)O)C3CCNC3)c2F)c1)C1CCNC1 [Compound 31, (2S,2'S)-3,3'-((3-((S)-2-carboxyl-2-(R)-pyrrolid-3-yl)ethyl)phenyl)sulfonyl)azadiyl)bis(methylenyl))bis(2,6-difluoro-3,1-phenylenyl)bis(2-(R)-pyrrolid-3-yl)propanoic acid)]	21.1
O=C(O)[C@@H](Cc1cccc(CCN(Cc2ccc(Cl)c(C[C@H](C(=O)O)[C@H]3CCNC3)c2)S(=O)(=O)c2cccc(C[C@H](C(=O)O)[C@H]3CCNC3)c2)c1)[C@H]1CCNC1 [Compound 38]	81.8
O=C(O)[C@@H](Cc1cccc(CN(Cc2cccc(C[C@H](C(=O)O)[C@H]3CCNC3)c2)S(=O)(=O)c2ccc(F)c(C[C@H](C(=O)O)[C@H]3CCNC3)c2)c1)[C@H]1CCNC1 [Compound 6]	47.8
O=C(O)[C@@H](Cc1cccc(S(=O)(=O)N(Cc2cc(C[C@H](C(=O)O)[C@H]3CCNC3)ccc2F)Cc2cc(C[C@H](C(=O)O)[C@H]3CCNC3)ccc2F)c1)[C@H]1CCNC1 [Compound 13]	11.5
O=C(O)C(Cc1cccc(CN(Cc2cccc(CC(C(=O)O)C3CCNC3)c2)S(=O)(=O)c2cccc(CC(C(=O)O)C3CCNC3)c2F)c1)C1CCNC1 [Compound 8, (2S,2'S)-3,3'(3-(S)-2-carboxyl-2-(R)-pyrrolid-3-yl)ethyl)-2-fluorophenyl sulfonyl)azadiyl)dimethylenyl)bis(3,1-phenylenyl)bis(2-(R)-pyrrolid-3-yl)propanoic acid)]	26.1
O=C(O)[C@@H](Cc1cccc(CN(Cc2ccc(Cl)c(C[C@H](C(=O)O)[C@H]3CCNC3)c2)S(=O)(=O)c2ccc(F)c(C[C@H](C(=O)O)[C@H]3CCNC3)c2)c1)[C@H]1CCNC1 [Compound 39, (S)-3-(5-(N-(3-((S)-2-carboxyl-2-((R)-pyrrolid-3-yl)ethyl)-4-chlorobenzyl)-N-(3-((S)-2-carboxyl-2-((R)-pyrrolid-3-yl)ethyl)benzyl)aminosulfonyl)-2-fluorophenyl)-2-((R)-pyrrolid-3-yl)propanoic acid]	24.9
O=C(O)[C@@H](Cc1cc(F)cc(CCN(Cc2cccc(C[C@H](C(=O)O)[C@H]3CCNC3)c2)S(=O)(=O)c2cccc(C[C@H](C(=O)O)[C@H]3CCNC3)c2)c1)[C@H]1CCNC1 [Compound 28]	86.5
O=C(O)[C@@H](Cc1cccc(CN(Cc2cc(C[C@H](C(=O)O)[C@H]3CCNC3)c(F)cc2F)S(=O)(=O)c2cccc(C[C@H](C(=O)O)[C@H]3CCNC3)c2)c1)[C@H]1CCNC1 [Compound 15]	16
O=C(O)C(Cc1cccc(CN(Cc2cccc(CC(C(=O)O)C3CCNC3)c2)S(=O)(=O)c2cc(F)cc(CC(C(=O)O)C3CCNC3)c2)c1)C1CCNC1 [Compound 7, (2S,2'S)-3,3'(3-((S)-2-carboxyl-2-(R)-pyrrolid-3-yl)ethyl)-5-fluorophenyl sulfonyl)azadiyl)dimethylenyl)bis(3,1-phenylenyl)bis(2-(R)-pyrrolid-3-yl)propanoic acid)]	69.9
O=C(O)[C@@H](Cc1cccc(CN(Cc2ccc(Cl)c(C[C@H](C(=O)O)[C@H]3CCNC3)c2)S(=O)(=O)c2cccc(C[C@H](C(=O)O)[C@H]3CCNC3)c2)c1)[C@H]1CCNC1 [Compound 10]	52.3
O=C(O)[C@@H](Cc1cccc(S(=O)(=O)N(CCc2ccccc2C[C@H](C(=O)O)[C@H]2CCNC2)Cc2cc(C[C@H](C(=O)O)[C@H]3CCNC3)c(F)cc2F)c1)[C@H]1CCNC1 [Compound 27]	79.6
O=C(O)C(Cc1cccc(CN(Cc2ccccc2CC(C(=O)O)C2CCNC2)S(=O)(=O)c2cccc(CC(C(=O)O)C3CCNC3)c2)c1)C1CCNC1 [Compound 23, (S)-3-(3-(((3-(S)-2-carboxyl-2-((R)-pyrrolid-3-yl)ethyl)-N-(2-((S)2-carboxyl-2-(R)pyrrolid-3-yl)ethyl)benzyl)phenyl)sulfonamido)methyl)phenyl)-2-((R)-pyrrolid-3-yl)propanoic acid]	76.2
O=C(O)[C@@H](Cc1cccc(CN(Cc2ccc(F)c(C[C@H](C(=O)O)[C@H]3CCNC3)c2)S(=O)(=O)c2cccc(C[C@H](C(=O)O)[C@H]3CCNC3)c2)c1)[C@H]1CCNC1 [Compound 2]	62.6
